The results in this text go back to ChEMBL document CHEMBL1137163, “Structure-activity relationships of potent and selective factor Xa inhibitors: benzimidazole derivatives with the side chain oriented to the prime site of factor Xa” (Bioorg Med Chem Lett, 2004).

One assay deals with Coagulation factor X (Homo sapiens, UniProt P00742). In words: Inhibitory concentration against human Coagulation factor X.
The next assay has as its target Prothrombin (Homo sapiens, UniProt P00734). The assay can be described thus: Inhibitory concentration against Coagulation factor II.
For the next assay, the species on record is Mus musculus. In words: Concentration required to produce 50% inhibition of tissue factor-induced platelet aggregation in disseminated intravascular coagulation (DIC) mouse model. It counts as functional.

pIC50: −log10 of the molar value.

Chain of Coagulation factor X (P00742 41-179 limits assumed): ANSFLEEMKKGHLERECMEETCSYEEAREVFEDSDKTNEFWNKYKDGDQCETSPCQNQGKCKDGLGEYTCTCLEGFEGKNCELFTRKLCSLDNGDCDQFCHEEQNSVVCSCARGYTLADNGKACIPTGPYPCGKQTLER
Chain of Coagulation factor X (P00742 235-488 limits assumed): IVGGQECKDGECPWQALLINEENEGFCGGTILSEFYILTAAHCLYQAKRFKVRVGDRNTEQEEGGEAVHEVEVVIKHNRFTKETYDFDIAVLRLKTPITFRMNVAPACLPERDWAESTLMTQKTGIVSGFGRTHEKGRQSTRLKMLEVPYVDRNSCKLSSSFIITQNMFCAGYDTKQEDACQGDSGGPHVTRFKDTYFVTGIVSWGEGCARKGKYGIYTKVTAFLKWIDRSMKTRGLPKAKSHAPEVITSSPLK

Turning to `CC(=N)N1CCC(Oc2ccc(N(Cc3nc4cc(C(=N)N)ccc4n3CC(=O)NC(C)(C)c3ccccc3)C(=O)c3ccc(C(=O)O)cc3)cc2)CC1`, the pIC50 at Coagulation factor X was 6.70; at Prothrombin, under 5.00.
As to `CC(=N)N1CC[C@H](Oc2ccc(CCc3cc4cc(C(=N)N)ccc4o3)cc2)C1`, the pIC50 was 6.22 against Coagulation factor X and under 5.00 on Prothrombin.
In turn, `CC(=N)N1CCC(Oc2ccc(N(Cc3nc4cc(C(=N)N)ccc4n3CC(=O)NC3CCCCC3)C(=O)c3ccc(C(=O)O)cc3)cc2)CC1.Cl.Cl` showed an ED50 in the assay listed under Mus musculus of 0.2 mg/kg.
In the case of `CC(=N)N1CCC(Oc2ccc(OCc3nc4cc(C(=N)N)ccc4n3CC(=O)NC(C)c3ccccc3)cc2)CC1` (centres undefined), the figures for the pIC50 on Coagulation factor X and on Prothrombin were 7.52 and under 5.00, respectively.
For `CC(=N)N1CCC(Oc2ccc(N(Cc3nc4cc(C(=N)N)ccc4n3CC(=O)NCc3ccc(Cl)c(Cl)c3)C(=O)c3ccc(C(=O)O)cc3)cc2)CC1.Cl.Cl`, the negative logarithm of the IC50 (pIC50) at Coagulation factor X was 8.22; on Prothrombin, under 5.00. In the assay filed under Mus musculus, this compound showed an ED50 of 0.7 mg/kg.
As for `CC(=N)N1CCC(Oc2ccc(N(Cc3nc4cc(C(=N)N)ccc4n3CC(=O)Nc3ccc(Cl)c(Cl)c3)C(=O)c3ccc(C(=O)O)cc3)cc2)CC1.Cl.Cl`, the pIC50 against Coagulation factor X was 6.70; at Prothrombin, under 5.00. In the assay filed under Mus musculus, this compound gave an ED50 of 0.7 mg/kg.
For `CC(=N)N1CCC(Oc2ccc(OCc3nc4cc(C(=N)N)ccc4n3CC(=O)NCC3CCCCC3)cc2)CC1`, the pIC50 against Coagulation factor X is 6.52; on Prothrombin, under 5.00.
Regarding `CC(=N)N1CCC(Oc2ccc(OCc3nc4cc(C(=N)N)ccc4n3CC(=O)NCCCc3ccccc3)cc2)CC1`, the pIC50 is 6.70 at Coagulation factor X and under 5.00 at Prothrombin.
For `N=C(N)c1ccc2c(c1)nc(CN(C(=O)c1ccc(C(=O)O)cc1)c1ccc(OC3CCNC3)cc1)n2CC(=O)NC1CCCCC1` (centres undefined), the pIC50 at Coagulation factor X was 6.52; against Prothrombin it was under 5.00.
On to `CC(=N)N1CCC(Oc2ccc(OCc3nc4cc(C(=N)N)ccc4n3CC(=O)NCc3ccc(Cl)c(Cl)c3)cc2)CC1`, for which the pIC50 was 7.52 on Coagulation factor X and under 5.00 on Prothrombin.
In the case of `N=C(N)c1ccc2c(c1)nc(CN(C(=O)c1ccc(C(=O)O)cc1)c1ccc(OC3CCN(C(=N)NCc4ccccc4)CC3)cc1)n2CC(=O)NC1CCCCC1`, on Prothrombin, the pIC50 was under 5.00.
As to `CC(=N)N1CCC(Oc2ccc(N(Cc3nc4cc(C(=N)N)ccc4n3CC(=O)NC3CCCCC3)C(=O)c3ccc(C(=O)O)cc3)cc2)C1` (centres undefined), the figures for the pIC50 against Coagulation factor X and at Prothrombin were 7.00 and under 5.00, respectively.
With `CC(=N)N1CCC(Oc2ccc(OCc3nc4cc(C(=N)N)ccc4n3CC(=O)Nc3ccc(Cl)c(Cl)c3)cc2)CC1`, the pIC50 against Coagulation factor X is 7.22; at Prothrombin, under 5.00.
Consider `CC(=N)N1CCC(Oc2ccc(OCc3nc4cc(C(=N)N)ccc4n3CC(=O)N3CCCCC3)cc2)CC1`, for which the pIC50 is 5.52 against Coagulation factor X and under 5.00 on Prothrombin.
In the case of `CC(=N)N1CCC(Oc2ccc(OCc3nc4cc(C(=N)N)ccc4n3CC(=O)NC3CCCCC3)cc2)CC1`, the pIC50 against Coagulation factor X is 7.40; at Prothrombin, under 5.00.
Consider `CCn1c(COc2ccc(OC3CCN(C(C)=N)CC3)cc2)nc2cc(C(=N)N)ccc21`, for which the values for the pIC50 against Coagulation factor X and at Prothrombin were 6.40 and under 5.00, respectively.
For the compound `N=C(N)c1ccc(Oc2ccc(N(Cc3nc4cc(C(=N)N)ccc4n3CC(=O)NC3CCCCC3)C(=O)c3ccc(C(=O)O)cc3)cc2)cc1`, the negative-log IC50 (pIC50) was 5.70 against Coagulation factor X and under 5.00 against Prothrombin.
For the compound `CC(=N)N1CCC(Oc2ccc(OCc3nc4cc(C(=N)N)ccc4n3CC(=O)NCc3ccccc3)cc2)CC1`, the pIC50 is 7.00 at Coagulation factor X and under 5.00 against Prothrombin.
On to `CC(=N)N1CCC(Oc2ccc(OCc3nc4cc(C(=N)N)ccc4n3CC(=O)Nc3ccccc3)cc2)CC1`, for which the pIC50 against Coagulation factor X is 7.00; on Prothrombin it was under 5.00.
Take `CC(=N)N1CC[C@H](Oc2ccc([C@H](Cc3ccc4ccc(C(=N)N)cc4c3)C(=O)O)cc2)C1.Cl` [DX-9065A HYDROCHLORIDE HYDRATE]: the ED50 in the assay filed under Mus musculus was 0.5 mg/kg.
